Experimental data from patent US20250170157A1, “METHODS AND COMPOSITIONS FOR THE TREATMENT OF HEPATIC ENCEPHALOPATHY” (LEXICON PHARMACEUTICALS, INC., priority 2023, published 2025).

How the values were obtained:
[1] = Phase 1 multiple ascending dose clinical study: pharmacokinetics; assay type: in vivo, human
Description: (§1) A phase 1 multiple ascending dose (MAD) clinical study of LX2761 in otherwise healthy subjects with type 2 diabetes (T2DM) was conducted, following an earlier, single ascending dose study of the compound's safety and tolerability.
(§2) This study evaluated the safety and tolerability of orally administered LX2761 given qd (i.e., once daily) or bid (i.e., twice daily) for eight days, over a range of ascending multiple dose levels in subjects with T2DM. As secondary objectives, the study evaluated the PD and PK of LX2761. Of the 51 subjects enrolled in the study, 27 (52.9%) were male and 24 (47.1%) were female. Subject ages ranged from 41 to 65 years, with BMIs ranging from 20.1 to 39.8 kg/m^2.
(§3) Subjects taking LX2761 were grouped into five cohorts: Cohort A=LX2761 dosed 0.4 mg qd for 4 days followed by LX2761 dosed 0.6 mg qd for 4 days; Cohort A2=LX2761 dosed 0.2 mg bid for 8 days; Cohort B=LX2761 dosed 0.6 mg qd for 4 days followed by LX2761 dosed 0.8 mg qd for 4 days; Cohort C=LX2761 dosed 0.6 mg qd for 4 days followed by LX2761 dosed 1.0 mg qd for 4 days; Cohort C1=LX2761 dosed 0.4 mg bid for 8 days.

[2] = target: T1, SGLT1 transporter (Homo sapiens, UniProt P13866); assay: Phase 1 multiple ascending dose clinical study: pharmacodynamics; assay type: in vivo
T1 construct: from tissue; host or cells: intestine of human subjects with T2DM (in vivo clinical study)
T1 sequence (P13866 1-664): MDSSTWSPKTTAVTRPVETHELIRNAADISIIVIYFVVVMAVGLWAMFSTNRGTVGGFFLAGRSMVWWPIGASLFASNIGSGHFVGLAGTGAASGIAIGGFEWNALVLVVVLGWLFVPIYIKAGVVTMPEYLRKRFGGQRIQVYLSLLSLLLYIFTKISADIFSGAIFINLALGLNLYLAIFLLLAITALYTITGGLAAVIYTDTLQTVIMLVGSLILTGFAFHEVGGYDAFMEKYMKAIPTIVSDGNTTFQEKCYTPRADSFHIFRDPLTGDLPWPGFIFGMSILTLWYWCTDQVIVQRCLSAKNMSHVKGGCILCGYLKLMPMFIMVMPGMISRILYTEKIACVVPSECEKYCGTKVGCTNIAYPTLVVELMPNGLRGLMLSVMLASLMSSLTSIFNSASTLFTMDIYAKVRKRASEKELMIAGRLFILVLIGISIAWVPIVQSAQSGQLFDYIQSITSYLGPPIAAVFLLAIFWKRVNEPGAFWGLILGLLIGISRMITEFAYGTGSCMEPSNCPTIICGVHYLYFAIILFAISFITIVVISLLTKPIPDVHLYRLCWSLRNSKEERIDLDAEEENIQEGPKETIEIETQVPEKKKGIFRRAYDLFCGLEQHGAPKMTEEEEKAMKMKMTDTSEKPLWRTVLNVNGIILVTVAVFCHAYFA
Description: A phase 1 multiple ascending dose (MAD) clinical study of LX2761 in otherwise healthy subjects with type 2 diabetes (T2DM) was conducted, following an earlier, single ascending dose study of the compound's safety and tolerability. This study evaluated the safety and tolerability of orally administered LX2761 given qd (i.e., once daily) or bid (i.e., twice daily) for eight days, over a range of ascending multiple dose levels in subjects with T2DM. As secondary objectives, the study evaluated the PD and PK of LX2761. […] Subjects taking LX2761 were grouped into five cohorts: Cohort A=LX2761 dosed 0.4 mg qd for 4 days followed by LX2761 dosed 0.6 mg qd for 4 days; Cohort A2=LX2761 dosed 0.2 mg bid for 8 days; Cohort B=LX2761 dosed 0.6 mg qd for 4 days followed by LX2761 dosed 0.8 mg qd for 4 days; Cohort C=LX2761 dosed 0.6 mg qd for 4 days followed by LX2761 dosed 1.0 mg qd for 4 days; Cohort C1=LX2761 dosed 0.4 mg bid for 8 days.

[3] = tested on: subjects with type 2 diabetes (T2DM); assay: Phase 1 multiple ascending dose clinical study: safety and tolerability; assay type: in vivo, human
Description: as §1, §2, §3
(§4) Reporting of TEAEs of diarrhea was not based on subject self-reporting. Given the mechanism of action of LX2761, osmotic diarrhea was expected to occur in all subjects receiving LX2761 based on either stool form or daily frequency. […] The study stopping rules defined gradation of diarrhea as follows: diarrhea of moderate intensity was defined as an increase of 4 to 5 stools/day over the normal pre-study count with moderate cramping that limits usual daily activity or may require simple therapeutic intervention; diarrhea of severe intensity was defined as an increase of 6 to 8 stools/day over the normal pre-study count with severe cramping or incontinence that prohibits usual daily activities or requires systemic drug therapy or other therapeutic intervention.

[4] = rodents and humans; cited from earlier work
[5] = tested on: subjects with type 2 diabetes (T2DM); assay: Phase 1 multiple ascending dose clinical study: bowel movement frequency and Bristol Stool Form (BSF) Scale; assay type: in vivo, human
Description: FIG. 2 provides a table with baseline Bristol Stool Form (BSF) Scale data for subjects taking placebo or LX2761 in a multiple ascending dose study.
as §1, §2, §3, §4

[6] = tested on: mice with STZ-induced diabetes; assay: Effect of LX2761 on glycemic control and cecal pH in mice with STZ-induced diabetes; assay type: in vivo; details: adult male mice with well-established diabetes, single daily doses 1.5 or 3 mg/kg by oral gavage
Description: FIGS. 1A-1F present data showing the effect of LX2761 on glycemic control in mice with STZ-induced diabetes. […] Glucose excursions among groups were compared as glucose AUC0-120 minutes values. […] On day 49, the final study day, samples were obtained to measure FIG. 1C fasting blood glucose; FIG. 1D plasma tGLP-1; and FIG. 1E cecal glucose, reported as the total amount of glucose recovered.
This study evaluated the effect of orally administered LX2761 on glycemic control in preclinical models.
Mice and Rats. All studies were performed at Lexicon Pharmaceuticals, Inc., in strict accordance with the recommendations in the Guide for the Care and Use of Laboratory Animals of the National institutes of Health. The protocols for all studies were approved by the Lexicon Institutional Animal Care and Use Committee (OLAW Assurance Number A4152-01; AAALAC International Accreditation Number 001025). General methods for mouse and rat care have been described elsewhere. […] For all in vivo studies, mice and rats were fed HGD because glucose must be a major source of dietary calories if the effects of SGLT1 inhibition on glucose homeostasis are to be evaluated. […]
Glucose-Containing Meal Challenge. […] Vehicle or LX2761 was administered by oral gavage at 8:00 AM once daily for 4 consecutive days; body weight and food consumption were measured daily. […]

[7] = T2DM subjects, oral qd or bid for eight days

In the case of CS[C@H]1O[C@@H](c2ccc(C)c(Cc3ccc(CCCC(=O)NC(C)(C)C(=O)NCCN(C)C)cc3)c2)[C@H](O)[C@@H](O)[C@@H]1O [LX2761, N-(1-((2-(dimethylamino)ethyl)-amino)-2-methyl-1-oxopropan-2-yl)-4-(4-(2-methyl-5-((2S,3R,4R,5S,6R)-3,4,5-trihydroxy-6-(methylthio)tetrahydro-2H-pyran-2-yl)benzyl)phenyl)butanamide], the “concentrations after the first dose (exposure)” value ([1]; after the first dose) was “mostly BLQ”, the “increase in exposure (AUC and Cmax)” value ([1]; ascending dose levels, moderate to high variability) was “generally dose-related” and the absorption ([1]; oral solution) was “rapid absorption”. The “peptide YY (PYY) after dosing” value [2, 7] was “increases”, the “total glucagon-like peptide 1 (GLP-1) after dosing” value [2, 7] was “increases” and the “least squares (LS) mean UGE0-24 versus Baseline” value ([2]; all LX2761 cohorts, at some time points) was “decreased from Baseline”. For the same compound, the “difference from placebo in change from Baseline in postprandial glucose (PPG) concentration AUC0-3” value ([2]; any LX2761 cohort) was “No statistically significant differences from placebo”, the “difference from placebo in change from Baseline in urinary glucose excretion from 0 to 24 hours (UGE0-24)” value ([2]; any LX2761 cohort) was “No statistically significant differences from placebo” and the “PPG concentration AUC0-3 versus Baseline” value ([2]; each LX2761 cohort except Cohort A2, at most assessment time points) was “reduced from Baseline”. For the same compound, the “changes in clinical laboratory evaluations, vital signs, physical examination findings, or ECG parameters” value [3, 7] was “No clinically significant changes”, the “intensity of reported TEAEs” value ([3]; all reported TEAEs) was “mild or moderate” and the “severe cramping or other adverse effects associated with existing HE agents such as lactulose” value ([3]; human clinical trial, low doses) was “generally not attended by severe cramping or other adverse effects”. For the same compound, the “severe TEAEs, SAEs, deaths, or discontinuations due to TEAEs” value ([3]; human, in vivo) was “No severe TEAEs, SAEs (serious adverse events), deaths, or discontinuations due to TEAEs occurred”, the “most frequently reported TEAEs” value ([3]; mainly nausea, vomiting, and abdominal pain) was “gastrointestinal (GI) events” and the “number of TEAEs assessed as moderate in intensity” value ([3]; of 25 TEAEs, reported by 6 subjects treated with LX2761) was 9 TEAEs. For the same compound, the systemic exposure [4] was “very low systemic exposure”, the “subjects with BMs graded as BSF Scale Type 6 or 7” value ([5]; all LX2761 cohorts but Cohort B, on at least one day through Day 8) was no less than 50% and the “increase in mean stool frequency per day from Baseline” value ([5]; all LX2761 cohorts, on at least one day through Day 8) was greater than 0.5 BM. The “frequency of subjects with 2 or 3 BMs graded as BSF Scale Type 6 or 7 on a single day, versus placebo-treated subjects” value ([5]; all LX2761 cohorts, through Day 8) was “higher”, the “change in BMs meeting study criteria of moderate or severe diarrhea” value ([5]; human, in vivo) was “No change in BMs meeting these criteria of moderate or severe diarrhea was reported” and the glycemic control ([6]; FIG. 1) was “improved glycemic control”. For the same compound, the “cecal pH” value ([6]; FIG. 1F) was “reduced cecal pH”.
